Laboratory results: US20150258107A1, “METHODS AND COMPOSITIONS FOR TREATING DEPRESSION” (DemeRx, Inc., priority 2014, published 2015)
Read-outs that look alike come from different tables or passages of the source.

How the values were obtained:
[1] = Single dose (acute oral) toxicity/TK study in dogs; type: in vivo, dog; settings: dog, in vivo; single oral dose
dogs = assay: Single dose (acute oral) toxicity/TK study in dogs; type: in vivo, dog
[2] = Single dose toxicity in cynomolgus monkeys; type: in vivo, cynomolgus monkey; settings: cynomolgus monkey, in vivo; oral gavage; read-out: single dose maximum tolerated dose (MTD)
Procedure: (§1) The objective of the study was to determine the toxicity and toxicokinetic profile of noribogaine following oral (gavage) administration to the cynomolgus monkey. Each dose was followed by a 7 day washout period. Dosing was staggered by 45 minutes. On study day 15, one animal was administered 80 mg/kg and the other animal was administered 160 mg/kg. The test article was administered as follows in Table 1:
(§2) Parameters monitored on the study included: mortality, clinical signs and body weights. Blood samples were collected for TK evaluation. […] The single dose maximum tolerated dose (MTD) was determined to be greater than 160 mg/kg based on the parameters monitored during the study.

cynomolgus monkey = assay: Single dose toxicity in cynomolgus monkeys; type: in vivo; settings: oral gavage, doses up to and including 160 mg/kg
Procedure: as §1, §2

[3] = Plasma toxicokinetics in dogs, fourteen day repeat dose; type: in vivo, dog
Procedure: Noribogaine HCl was administered to groups of 4 male and 4 female dogs by single oral gavage daily for 14 days at doses of 0, 0.5, 1.0 and 5.0 mg/kg/day. An additional group of 4 male and 4 female dogs received either the vehicle control or 5.0 mg/kg/day for 14 days and were held for an additional 28 days after cessation of dosing to assess recovery from any potential drug-induced changes. The study was conducted under GLP guidelines and included comprehensive examinations of clinical signs, body weight, clinical pathology parameters, ophthalmologic examinations, ECG recordings and analyses of plasma for bioanalytical measurement of drug levels at appropriate intervals during the study. At the termination of the dosing phase and at the termination of the recovery phase, all dogs were subjected to a complete post-mortem examination including gross examination of major organs and histologic examination of an extensive list of tissues. Additional sections of brain were obtained from cerebrum, cerebellus, brain stem and spinal cord and examined histologically to evaluate potential effects on brain histopathology. In addition, these sections were examined with immunohistochemical stains for GFAP for evidence of gliosis and Calbindin for a more comprehensive examination of cerebellar Purkinje cells.

[4] = tested on: healthy, drug-free male volunteers; assay: Pupillometry (pupillary miosis) in healthy volunteers; type: in vivo, human; settings: 3, 10, 30, 60 mg single oral dose
Procedure: Pulse oximetry and capnography data were collected continuously using a GE Carescape B650 monitoring system from 2 hours prior to dosing and until six hours after dosing, and thereafter at 12, 24, 48 and 72 hours post-dosing. […] Pupillary miosis was assessed by pupillometry.
Summary statistics (means, standard deviations, and coefficients of variation) were determined for each dose group for safety laboratory test data, ECG and pharmacokinetic parameters, and pharmacodynamic variables. Categorical variables were analysed using counts and percentages. Dose-proportionality of AUC and Cmax was assessed using linear regression. The effect of dose on pharmacodynamic parameter values over time was assessed using two-factor analysis of variance (ANOVA). Pairwise comparisons (with Tukey-Kramer adjustment) between each dose group to the placebo were conducted at each time point using the least squares estimates obtained from the ANOVA, using SAS Proc Mixed (SAS ver 6.0).

[5] = tested on: opioid-dependent participants; assay: QT interval in opioid-dependent participants; type: in vivo, human; settings: 60, 120, 180 mg, first 24 hours post administration
Procedure: Patients' QT intervals were evaluated at regular time points throughout the study.

[6] = female, dog, plasma, po, 0.5 mg/kg, female dogs, Gr 2, 0.5 mg/kg, D1
[7] = female, dog, plasma, po, 0.5 mg/kg, female dogs, Gr 2, 0.5 mg/kg, D14
[8] = female, dog, plasma, po, 1 mg/kg, female dogs, Gr 3, 1.0 mg/kg, D1
[9] = female, dog, plasma, po, 1 mg/kg, female dogs, Gr 3, 1.0 mg/kg, D14
[10] = female, dog, plasma, po, 5 mg/kg, female dogs, Gr 4, 5.0 mg/kg, D1
[11] = female, dog, plasma, po, 5 mg/kg, female dogs, Gr 4, 5.0 mg/kg, D14
[12] = male, dog, plasma, po, 0.5 mg/kg, male dogs, Gr 2, 0.5 mg/kg, D1
[13] = male, dog, plasma, po, 0.5 mg/kg, male dogs, Gr 2, 0.5 mg/kg, D14
[14] = male, dog, plasma, po, 1 mg/kg, male dogs, Gr 3, 1.0 mg/kg, D1
[15] = male, dog, plasma, po, 1 mg/kg, male dogs, Gr 3, 1.0 mg/kg, D14
[16] = male, dog, plasma, po, 5 mg/kg, male dogs, Gr 4, 5.0 mg/kg, D1
[17] = male, dog, plasma, po, 5 mg/kg, male dogs, Gr 4, 5.0 mg/kg, D14

CC[C@H]1CC2C[C@H]3c4[nH]c5ccc(O)cc5c4CCN(C2)C13 [noribogaine]
NOAEL [1]: 5 mg/kg | Findings at the NOAEL dose (dogs; 5 mg/kg): only transient reduction in food consumption in one dog | Clinical signs (dogs; 10 mg/kg): Convulsions and other CNS-related clinical signs | Onset of clinical signs after dosing (dogs; 10 mg/kg): 20 min | Mortality (dogs; oral doses of 5 (n=2) or 10 (n=2) mg/kg): no mortality occurred | MTD [2]: > 160 mg/kg | Mortality or treatment related clinical signs (cynomolgus monkey): No mortality or treatment related clinical signs were noted | Cmax ([3]; female dogs, Gr 2, 0.5 mg/kg, D1): 25.3 ng/mL | Cmax ([3]; female dogs, Gr 2, 0.5 mg/kg, D14): 29.8 ng/mL | Cmax ([3]; female dogs, Gr 3, 1.0 mg/kg, D1): 68.5 ng/mL | Cmax ([3]; female dogs, Gr 3, 1.0 mg/kg, D14): 74.1 ng/mL | Cmax ([3]; female dogs, Gr 4, 5.0 mg/kg, D1): 691 ng/mL | Cmax ([3]; female dogs, Gr 4, 5.0 mg/kg, D14): 683 ng/mL | AUC(0-inf) [3, 6]: 44.9 ng·h/mL | Tmax [3, 6]: 0.5 h | half-life [3, 6]: 1 h | AUC(0-t) ([3]; female, dog, plasma, po, 0.5 mg/kg, female dogs, Gr 2, 0.5 mg/kg, D1, read-out: AUC0-24 h): 40.4 ng·h/mL | AUC(0-t) ([3]; female, dog, plasma, po, 0.5 mg/kg, female dogs, Gr 2, 0.5 mg/kg, D1, read-out: AUC0-last): 31.5 ng·h/mL | AUC(0-inf) [3, 7]: 45.7 ng·h/mL | Tmax [3, 7]: 1 h | half-life [3, 7]: 1.1 h | AUC(0-t) ([3]; female, dog, plasma, po, 0.5 mg/kg, female dogs, Gr 2, 0.5 mg/kg, D14, read-out: AUC0-24 h): 55 ng·h/mL | AUC(0-t) ([3]; female, dog, plasma, po, 0.5 mg/kg, female dogs, Gr 2, 0.5 mg/kg, D14, read-out: AUC0-last): 35.4 ng·h/mL | AUC(0-inf) [3, 8]: 165 ng·h/mL | Tmax [3, 8]: 0.8 h | half-life [3, 8]: 1.4 h | AUC(0-t) ([3]; female, dog, plasma, po, 1 mg/kg, female dogs, Gr 3, 1.0 mg/kg, D1, read-out: AUC0-24 h): 176 ng·h/mL | AUC(0-t) ([3]; female, dog, plasma, po, 1 mg/kg, female dogs, Gr 3, 1.0 mg/kg, D1, read-out: AUC0-last): 149 ng·h/mL | AUC(0-inf) [3, 9]: 197 ng·h/mL | Tmax [3, 9]: 0.5 h | half-life [3, 9]: 1.6 h | AUC(0-t) ([3]; female, dog, plasma, po, 1 mg/kg, female dogs, Gr 3, 1.0 mg/kg, D14, read-out: AUC0-24 h): 204 ng·h/mL | AUC(0-t) ([3]; female, dog, plasma, po, 1 mg/kg, female dogs, Gr 3, 1.0 mg/kg, D14, read-out: AUC0-last): 169 ng·h/mL | AUC(0-inf) [3, 10]: 3430 ng·h/mL | Tmax [3, 10]: 0.6 h | half-life [3, 10]: 4.3 h | AUC(0-t) ([3]; female, dog, plasma, po, 5 mg/kg, female dogs, Gr 4, 5.0 mg/kg, D1, read-out: AUC0-24 h): 3370 ng·h/mL | AUC(0-t) ([3]; female, dog, plasma, po, 5 mg/kg, female dogs, Gr 4, 5.0 mg/kg, D1, read-out: AUC0-last): 3370 ng·h/mL | AUC(0-inf) [3, 11]: 6280 ng·h/mL | half-life [3, 11]: 5.7 h | AUC(0-t) ([3]; female, dog, plasma, po, 5 mg/kg, female dogs, Gr 4, 5.0 mg/kg, D14, read-out: AUC0-24 h): 5950 ng·h/mL | AUC(0-t) ([3]; female, dog, plasma, po, 5 mg/kg, female dogs, Gr 4, 5.0 mg/kg, D14, read-out: AUC0-last): 5950 ng·h/mL | AUC(0-inf) [3, 12]: 67.8 ng·h/mL | Tmax [3, 12]: 0.7 h | half-life [3, 12]: 1.3 h | AUC(0-t) ([3]; male, dog, plasma, po, 0.5 mg/kg, male dogs, Gr 2, 0.5 mg/kg, D1, read-out: AUC0-24 h): 59.7 ng·h/mL | AUC(0-t) ([3]; male, dog, plasma, po, 0.5 mg/kg, male dogs, Gr 2, 0.5 mg/kg, D1, read-out: AUC0-last): 46.6 ng·h/mL | Cmax ([3]; male, dog, plasma, po, 0.5 mg/kg, male dogs, Gr 2, 0.5 mg/kg, D1, read-out: Cmax): 28.8 ng/mL | AUC(0-inf) [3, 13]: 68.2 ng·h/mL | Tmax [3, 13]: 0.7 h | half-life [3, 13]: 1.3 h | AUC(0-t) ([3]; male, dog, plasma, po, 0.5 mg/kg, male dogs, Gr 2, 0.5 mg/kg, D14, read-out: AUC0-24 h): 64.5 ng·h/mL | AUC(0-t) ([3]; male, dog, plasma, po, 0.5 mg/kg, male dogs, Gr 2, 0.5 mg/kg, D14, read-out: AUC0-last): 53.2 ng·h/mL | Cmax ([3]; male, dog, plasma, po, 0.5 mg/kg, male dogs, Gr 2, 0.5 mg/kg, D14, read-out: Cmax): 29.4 ng/mL | AUC(0-inf) [3, 14]: 121 ng·h/mL | Tmax [3, 14]: 0.9 h | half-life [3, 14]: 1.2 h | AUC(0-t) ([3]; male, dog, plasma, po, 1 mg/kg, male dogs, Gr 3, 1.0 mg/kg, D1, read-out: AUC0-24 h): 120 ng·h/mL | AUC(0-t) ([3]; male, dog, plasma, po, 1 mg/kg, male dogs, Gr 3, 1.0 mg/kg, D1, read-out: AUC0-last): 102 ng·h/mL | Cmax ([3]; male, dog, plasma, po, 1 mg/kg, male dogs, Gr 3, 1.0 mg/kg, D1, read-out: Cmax): 58.6 ng/mL | AUC(0-inf) [3, 15]: 196 ng·h/mL | Tmax [3, 15]: 0.8 h | half-life [3, 15]: 1.8 h | AUC(0-t) ([3]; male, dog, plasma, po, 1 mg/kg, male dogs, Gr 3, 1.0 mg/kg, D14, read-out: AUC0-24 h): 210 ng·h/mL | AUC(0-t) ([3]; male, dog, plasma, po, 1 mg/kg, male dogs, Gr 3, 1.0 mg/kg, D14, read-out: AUC0-last): 172 ng·h/mL | Cmax ([3]; male, dog, plasma, po, 1 mg/kg, male dogs, Gr 3, 1.0 mg/kg, D14, read-out: Cmax): 67.6 ng/mL | AUC(0-inf) [3, 16]: 3630 ng·h/mL | Tmax [3, 16]: 0.6 h | half-life [3, 16]: 4.7 h | AUC(0-t) ([3]; male, dog, plasma, po, 5 mg/kg, male dogs, Gr 4, 5.0 mg/kg, D1, read-out: AUC0-24 h): 3520 ng·h/mL | AUC(0-t) ([3]; male, dog, plasma, po, 5 mg/kg, male dogs, Gr 4, 5.0 mg/kg, D1, read-out: AUC0-last): 3520 ng·h/mL | Cmax ([3]; male, dog, plasma, po, 5 mg/kg, male dogs, Gr 4, 5.0 mg/kg, D1, read-out: Cmax): 693 ng/mL | AUC(0-inf) [3, 17]: 6960 ng·h/mL | Tmax [3, 17]: 0.9 h | half-life [3, 17]: 6.5 h | AUC(0-t) ([3]; male, dog, plasma, po, 5 mg/kg, male dogs, Gr 4, 5.0 mg/kg, D14, read-out: AUC0-24 h): 6400 ng·h/mL | AUC(0-t) ([3]; male, dog, plasma, po, 5 mg/kg, male dogs, Gr 4, 5.0 mg/kg, D14, read-out: AUC0-last): 6400 ng·h/mL | Cmax ([3]; male, dog, plasma, po, 5 mg/kg, male dogs, Gr 4, 5.0 mg/kg, D14, read-out: Cmax): 716 ng/mL | Pupillary constriction [4]: no evidence of pupillary constriction | QT interval prolongation (ΔQTc1) [5]: dose-dependent increase in QT interval prolongation
